Columns and labels:
tankyrase 1 (TNKS1) = biological target: T1, tankyrase 1 (TNKS1) (Homo sapiens, UniProt O95271); experiment: Tankyrase inhibitory activity test (ELISA, auto-poly(ADP-ribosyl)ation), tankyrase 1; format: biochemical; settings: Flag tagged tankyrase 1 (1,024-1,327aa, SAM+PARP); read-out: TNKS1 (inhibitory activity against tankyrase 1, IC50)
T1 construct: tankyrase 1 (1,024-1,327aa, SAM+PARP); made in house; host or cells: cell-free protein expression system
Experimental: (§1) The enzymatic activity of tankyrase 1 and the enzymatic activity of tankyrase 2 were measured by the ELISA method based on assessment of auto-poly(ADP-ribosyl)ation to evaluate the tankyrase inhibitory activity of the compound prepared in each of Examples (test compound) (inhibitory activity against tankyrase 1 (TNKS1) and inhibitory activity against tankyrase 2 (TNKS2)). First, Flag tagged tankyrase 1 (1,024-1,327aa, SAM+PARP) and tankyrase 2 (613-1,116aa, ANK5+SAM+PARP) were synthesized with a cell-free protein expression system, and diluted with a Tris buffer solution (50 mM Tris-HCl (pH 8.0), 150 mM NaCl, 10% glycerol). 50 μL of the diluted tankyrase 1 or tankyrase 2 was added to a plate with an anti-FLAG M2 monoclonal antibody immobilized thereon (Anti-FLAG High-Sensitivity M2-Coated Plate) (Sigma-Aldrich), and the plate was left standing overnight at 4° C. Thereafter, the plate was washed four times with a PBS (PBST) buffer containing 0.1% Triton X-100. For Example 84, the Anti-FLAG High-Sensitivity M2-Coated Plate was replaced by an immunoplate (Thermo Fisher Scientific), tankyrase 1 or tankyrase 2 was immobilized on the immunoplate, and the immunoplate was then blocked with Blocking One (nacalai tesque), then washed with a PBS (PBST) buffer, and used as the following plate.
(§2) Subsequently, the test compound diluted with an assay buffer (50 mM Tris-HCl (pH 8.0), 4 mM MgCl2, 0.2 mM DTT) (DMSO was used as a control) was added to each well of the plate, and the plate was left standing at room temperature for 10 minutes. Thereafter, a biotin-labeled NAD solution (225 μM NAD, 25 μM 6-Biotin-17-NAD (Travigen, Inc.)) was added and mixed as a donor substrate, and the mixture was reacted at 30° C. for 45 minutes. To blank wells was added distilled water instead of the biotin-labeled NAD solution. After the reaction, the plate was washed with a PBST buffer four times. Thereafter, HRP (horseradish peroxidase)-labeled streptavidin (Travigen, Inc.) was diluted with a PBS buffer by 1,000 times, and added to each well, and the mixture was reacted at room temperature for 20 minutes. The plate was washed with a PBST buffer four times, a chemiluminescent substrate solution TACS-Sapphire (Travigen, Inc.) was then added to each well, the mixture was reacted at room temperature for 20 minutes, and the chemiluminescence intensity was measured using a chemiluminescence measuring apparatus. For Example 84, the streptavidin was diluted by 5,000 times, the chemiluminescent substrate solution TACS-Sapphire was replaced by an ELISA POD substrate TMB solution easy (nacalai tesque), the mixture was reacted at room temperature for 30 minutes, and the chemiluminescence intensity was measured using a chemiluminescence measuring apparatus.
(§3) The residual enzymatic activity in the presence of the test compound was determined from the following expression. On the basis of the residual enzymatic activity at each of multiple concentrations of the test compound, the enzyme inhibitory activity was calculated in terms of a 50%-inhibition concentration (IC50 value) using data analysis software Origin (LightStone Corp.). Residual activity (%)={(chemiluminescence intensity with test compound added)−(chemiluminescence intensity of blank)}/{(chemiluminescence intensity of control)−(chemiluminescence intensity of blank)}

[1] = tested on: human colorectal cancer cell line COLO-320DM; experiment: Cell proliferation inhibitory activity test (Celltiter-Glo); format: cell-based; settings: COLO-320DM cells, 96 hours
Experimental: The cell proliferation inhibitory activity of the compound, which had been prepared in each of Examples, against the human colorectal cancer cell line COLO-320DM was evaluated by Celltiter-Glo Luminescent Cell Viability Assay (Promega Corporation; G7573). COLO-320DM cells were cultured in RPMI-1640 medium containing 2 mM glutamine (Wako Pure Chemical Industries, Ltd; 189-02025) supplemented with 10% fetal bovine serum. The cultured cells were washed with PBS, and then dissociated with trypsin/EDTA, and a cell solution with 3×10^4 cells/mL was prepared.
Subsequently, the cell solution was seeded in a 96-well microplate (Thermo/Nunc Company; 136101) in an amount of 70 μL per well, and cultured overnight under the condition of 37° C. and 5% CO2. Next day, a test compound solution obtained by diluting the test compound (DMSO solution) with a cell culture medium (final concentration of DMSO was 1%) was added in an amount of 10 μL per well, and the mixture was reacted under the condition of 37° C. and 5% CO2 for 96 hours (a 1% DMSO solution was used as a control). Thereafter, a Celltiter-GloLuminescent Cell Viability Assay reagent (Promega Corporation; G7573) was added in an amount of 80 μL per well, the mixture was stirred with a shaker for 2 minutes while light was blocked with an aluminum foil, and the mixture was incubated at room temperature for 10 minutes.
Thereafter, a luminescence signal was measured with a luminometer (Biotech Company; Synergy). The ratio of cell proliferation in each compound addition group to cell proliferation in a control group containing no test compound solution, where cell proliferation in the control group is 100%, was calculated and the value of a compound concentration necessary for suppressing the amount of residual cells to 50% of that in the control (GI50) was calculated as the cytostatic activity. […] An unevaluated test compound was designated as “NT”.

tankyrase 2 (TNKS2) = biological target: T2, tankyrase 2 (TNKS2) (Homo sapiens, UniProt Q9H2K2); experiment: Tankyrase inhibitory activity test (ELISA, auto-poly(ADP-ribosyl)ation), tankyrase 2; format: biochemical; settings: Flag tagged tankyrase 2 (613-1,116aa, ANK5+SAM+PARP); read-out: TNKS2 (inhibitory activity against tankyrase 2, IC50)
T2 construct: tankyrase 2 (613-1,116aa, ANK5+SAM+PARP); made in house; host or cells: cell-free protein expression system
Experimental: as §1, §2, §3

T1 sequence (O95271 1024-1327): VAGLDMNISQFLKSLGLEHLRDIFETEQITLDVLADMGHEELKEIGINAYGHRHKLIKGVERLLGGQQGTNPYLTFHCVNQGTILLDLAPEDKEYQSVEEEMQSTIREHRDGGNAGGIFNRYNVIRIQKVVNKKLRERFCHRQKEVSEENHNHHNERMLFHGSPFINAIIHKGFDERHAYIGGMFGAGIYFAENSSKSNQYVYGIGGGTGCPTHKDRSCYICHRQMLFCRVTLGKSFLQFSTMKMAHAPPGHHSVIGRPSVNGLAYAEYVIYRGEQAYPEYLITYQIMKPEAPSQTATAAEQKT

Compound	IC50 (tankyrase 1 (TNKS1)) [µM]	GI50 [1] [µM]	IC50 (tankyrase 2 (TNKS2)) [µM]
CN1CCN(c2ccc(-c3cccc(-c4n[nH]cc4C4NC(=O)c5ccccc5N4C)c3)cc2)CC1 (stereo not drawn) [Example 23, 1-Methyl-2-[5-[3-[4-(4-methylpiperazin-1-yl)phenyl]phenyl]-1H-pyrazol-4-yl]-2,3-dihydroquinazolin-4-one]	0.02 to 0.05	1 to 10	0.02 to 0.05
CN1c2ccccc2C(=O)NC1c1c[nH]nc1-c1ccc(-c2cccc(O)c2)cc1 (stereo not drawn) [Example 24, 2-[3-[4-(3-Hydroxyphenyl)phenyl]-1H-pyrazol-4-yl]-1-methyl-2,3-dihydroquinazolin-4-one]	0.005 to 0.02	≥ 10	0.005 to 0.02
CN1CCN(Cc2ccc(-c3ccc(-c4n[nH]cc4C4NC(=O)c5ccccc5N4C)cc3)cc2)CC1 (stereo not drawn) [Example 25, 1-Methyl-2-[5-[4-[4-[(4-methylpiperazin-1-yl)methyl]phenyl]phenyl]-1H-pyrazol-4-yl]-2,3-dihydroquinazolin-4-one]	0.005 to 0.02	≥ 10	0.02 to 0.05
CN1CCN(Cc2cccc(-c3ccc(-c4n[nH]cc4C4NC(=O)c5ccccc5N4C)cc3)c2)CC1 (stereo not drawn) [Example 26, 1-Methyl-2-[5-[4-[3-[(4-methylpiperazin-1-yl)methyl]phenyl]phenyl]-1H-pyrazol-4-yl]-2,3-dihydroquinazolin-4-one]	0.02 to 0.05	≥ 10	0.005 to 0.02
CN1c2ccccc2C(=O)NC1c1c[nH]nc1-c1ccc(OCC(F)(F)F)cc1 (stereo not drawn) [Example 27, 1-Methyl-2-[3-(4-(2,2,2-trifluoromethoxy)phenyl]-1H-pyrazol-4-yl]-2,3-dihydroquinazolin-4-one]	< 0.005	≥ 10	0.005 to 0.02
CN1c2ccccc2C(=O)NC1c1c[nH]nc1-c1cccc(F)c1 (stereo not drawn) [Example 28, 2-[3-(3-Fluorophenyl)-1H-pyrazol-4-yl]-1-methyl-2,3-dihydroquinazolin-4-one]	< 0.005	1 to 10	0.005 to 0.02
CN1c2ccccc2C(=O)NC1c1c[nH]nc1-c1ccc(-c2ccc(N3CCOCC3)cc2)cc1 (stereo not drawn) [Example 29]	0.005 to 0.02	1 to 10	0.005 to 0.02
CN1c2ccccc2C(=O)NC1c1c[nH]nc1-c1cccc(-c2ccc(N3CCOCC3)cc2)c1 (stereo not drawn) [Example 30]	0.005 to 0.02	1 to 10	0.005 to 0.02
CN1c2ccccc2C(=O)NC1c1c[nH]nc1-c1ccc(C#N)cc1 (stereo not drawn) [Example 31, 4-[4-(1-Methyl-4-oxo-2,3-dihydroquinazolin-2-yl)-1H-pyrazol-3-yl]benzonitrile]	0.005 to 0.02	≥ 10	0.005 to 0.02
CN1CCN(Cc2ccc(-c3cccc(-c4n[nH]cc4C4NC(=O)c5ccccc5N4C)c3)cc2)CC1 (stereo not drawn) [Example 32]	0.02 to 0.05	≥ 10	0.02 to 0.05
CN1CCN(Cc2cccc(-c3cccc(-c4n[nH]cc4C4NC(=O)c5ccccc5N4C)c3)c2)CC1 (stereo not drawn) [Example 33]	0.02 to 0.05	≥ 10	0.02 to 0.05
CN(C)c1ccc(-c2ccc(-c3n[nH]cc3C3NC(=O)c4ccccc4N3C)cc2)cc1 (stereo not drawn) [Example 34, 2-[5-[4-[4-(Dimethylamino)phenyl]phenyl]-1H-pyrazol-4-yl]-1-methyl-2,3-dihydroquinazolin-4-one]	0.02 to 0.05	1 to 10	0.02 to 0.05

Next, values leading:

IC50 (tankyrase 1 (TNKS1)) [µM]	GI50 [1] [µM]	IC50 (tankyrase 2 (TNKS2)) [µM]	Compound
0.02 to 0.05	≥ 10	0.02 to 0.05	CN(C)c1ccc(-c2cccc(-c3n[nH]cc3C3NC(=O)c4ccccc4N3C)c2)cc1 (stereo not drawn) [Example 35, 2-[5-[3-[4-(Dimethylamino)phenyl]phenyl]-1H-pyrazol-4-yl]-1-methyl-2,3-dihydroquinazolin-4-one]
0.02 to 0.05	≥ 10	0.02 to 0.05	CCOC(=O)Cc1ccc(-c2ccc(-c3[nH]ncc3C3NC(=O)c4ccccc4N3C)cc2)cc1 (stereo not drawn) [Example 36, Ethyl 2-[4-[4-[4-(1-methyl-4-oxo-2,3-dihydroquinazolin-2-yl)-1H-pyrazol-5-yl]phenyl]phenyl]acetate]
0.02 to 0.05	≥ 10	0.02 to 0.05	CCOC(=O)Cc1ccc(-c2cccc(-c3n[nH]cc3C3NC(=O)c4ccccc4N3C)c2)cc1 (stereo not drawn) [Example 37, Ethyl 2-[4-[3-[4-(1-methyl-4-oxo-2,3-dihydroquinazolin-2-yl)-1H-pyrazol-5-yl]phenyl]phenyl]acetate]
0.02 to 0.05	1 to 10	0.02 to 0.05	CN1CCN(c2cccc(-c3ccc(-c4[nH]ncc4C4NC(=O)c5ccccc5N4C)cc3)c2)CC1 (stereo not drawn) [Example 38, 1-Methyl-2-[5-[4-[3-(4-methylpiperazin-1-yl)phenyl]phenyl]-1H-pyrazol-4-yl]-2,3-dihydroquinazolin-4-one]
0.02 to 0.05	≥ 10	0.02 to 0.05	CN1c2ccccc2C(=O)NC1c1c[nH]nc1-c1ccc(-c2ccnc3[nH]ccc23)cc1 (stereo not drawn) [Example 39, 1-Methyl-2-[3-[4-(1H-pyrrolo[2,3-b]pyridin-4-yl)phenyl]-1H-pyrazol-4-yl]-2,3-dihydroquinazolin-4-one]
0.02 to 0.05	≥ 10	0.02 to 0.05	CN1c2ccccc2C(=O)NC1c1c[nH]nc1-c1ccc(-c2ccnc3ccccc23)cc1 (stereo not drawn) [Example 40, 1-Methyl-2-[3-(4-quinolin-4-ylphenyl)-1H-pyrazol-4-yl]-2,3-dihydroquinazolin-4-one]
0.02 to 0.05	1 to 10	0.005 to 0.02	CN1c2ccccc2C(=O)NC1c1c[nH]nc1-c1ccc(-c2ccc(N3CCNCC3)cc2)cc1 (stereo not drawn) [Example 41]
0.02 to 0.05	1 to 10	0.005 to 0.02	CN1c2ccccc2C(=O)NC1c1c[nH]nc1-c1cccc(Cl)c1 (stereo not drawn) [Example 42, 2-[3-(3-Chlorophenyl)-1H-pyrazol-4-yl]-1-methyl-2,3-dihydroquinazolin-4-one]
< 0.005	≥ 10	< 0.005	CN1c2ccccc2C(=O)NC1c1c[nH]nc1-c1ccc(Br)c(F)c1 (stereo not drawn) [Example 43, 2-[3-(4-Bromo-3-fluorophenyl)-1H-pyrazol-4-yl]-1-methyl-2,3-dihydroquinazolin-4-one]
0.005 to 0.02	1 to 10	0.005 to 0.02	CN1CCN(c2ccc(-c3ccc(-c4n[nH]cc4C4NC(=O)c5ccccc5N4C)cc3F)cc2)CC1 (stereo not drawn) [Example 44, 2-[5-[3-Fluoro-4-[4-(4-methylpiperazin-1-yl)phenyl]phenyl]-1H-pyrazol-4-yl]-1-methyl-2,3-dihydroquinazolin-4-one]

From patent US11566017B2, “Dihydroquinazolinone compound or pharmacologically acceptable salt, and cell growth inhibitor” (RIKEN, priority 2017, dated 2023)
